Reference: US12071407B1, “6-(4-hydroxyphenyl)-2-(2-ethoxyethoxy)-4-(4-methoxyphenyl)nicotinonitrile as an antimicrobial compound” (KING FAISAL UNIVERSITY, priority 2023, dated 2024)

Experiments:
Candida albicans = assay: Antimicrobial screening by agar dilution; format: cell-based; settings: after 10, 20, 40 and 60 minutes at all dilutions 1:100, 1:200, 1:400, 1:800
Description: (§1) The antibacterial properties of the synthesized compound 6-(4-hydroxyphenyl)-2-(2-ethoxyethoxy)-4-(4-methoxyphenyl)nicotinonitrile were studied by the method of agar dilution. Test solutions of each compound was prepared in concentration of 1% using dimethylformamide as a solvent then they are diluted in physiological solution to obtain the final experimental dilutions 1:100, 1:200, 1:400, 1:800. The effects of these substances are compared with furacillin in a controllable study. The testing microbes used were gram positive bacteria Staphylococcus aureus, gram negative bacteria Pseudomonas aeruginosa and Escherichia coli and Candida albicans fungus. The experiments used for this survey were meat-pentonlu agar (EPA) for cultivation of bacteria and Saburo environment for the fungus. Each experiment used 1 mL of test solution on each plate […]. Two drops of emulsified with microbes feel were added. All experimental samples were taken from the agar after 10, 20, 40, 60 minutes in the environment on the basis of Patrk planted. The bacteria were cultivated at a temperature of 37° C. for 1 day and the mushroom was kept in a thermostat for […] at a temperature of 28° C. Then results were checked.

Escherichia coli = assay: Antimicrobial screening by agar dilution; format: cell-based; settings: after 10, 20, 40 and 60 minutes at all dilutions 1:100, 1:200, 1:400, 1:800
Description: as §1

Pseudomonas aeruginosa = assay: Antimicrobial screening by agar dilution; format: cell-based; settings: after 10, 20, 40 and 60 minutes at all dilutions 1:100, 1:200, 1:400, 1:800
Description: as §1

Staphylococcus aureus = assay: Antimicrobial screening by agar dilution; format: cell-based; settings: after 10, 20, 40 and 60 minutes at all dilutions 1:100, 1:200, 1:400, 1:800
Description: as §1

- melting point: 209 to 211 °C
SMILES: CCOCCOc1nc(-c2ccc(O)cc2)cc(-c2ccc(OC)cc2)c1C#N [6-(4-hydroxyphenyl)-2-(2-ethoxyethoxy)-4-(4-methoxyphenyl)nicotinonitrile]
- inhibition activity (summary in words) (Candida albicans): highest inhibition activity
- inhibition activity (summary in words) (Escherichia coli): highest inhibition activity
- inhibition activity (summary in words) (Pseudomonas aeruginosa): highest inhibition activity
- inhibition activity (summary in words) (Staphylococcus aureus): highest inhibition activity
